Data reported in patent publication US10610104B2, “Gastrointestinal tract detection methods, devices and systems” (priority 2016, dated 2020).

Assays:
[1] = molecular target: human IL-6 (Homo sapiens, UniProt P05231); conditions: cited from earlier work
[2] = test system: C. albicans; assay: OD600 assay under simulated GI conditions, fungal contamination with or without anti-fungal recovery media; type: cell-based; conditions: TSB containing 2.5 mg/L Amphotericin B; C. albicans 1×10^3 CFU/mL; FaSSIF-V2; 4 hour incubation
Experimental: Experiments were performed in order to simulate an ingestible device that contains sterile media that is inoculated with a sample of fluid from the GI tract and incubated in transit. The experiments were designed to evaluate whether the assay could predict total bacterial counts over a dynamic range of 10^3 CFU/mL to 10^7 CFU/mL under a series of different conditions of pH, […], fungal strains, mucin concentrations. The samples were also incubated under conditions of shear forces and temperature that simulate conditions of an ingestible device in transit within the GI tract.
Gram-negative (Escherichia coli ATCC 25922) and Gram-positive (Staphylococcus epidermidis ATCC 12228) bacterial cultures were diluted in a standard growth media (TSB) over a dynamic range of 10^7 CFU/mL to 10^3 CFU/mL. The assay utilized […], under shear (110 rpm) and at body temperature (37° C.) over a 4 hour incubation period to simulate transit of an ingestible device within the GI tract. Experiments were performed under various conditions as indicated including: different pH levels (6.5, 7.0 and 7.8); […]; […] […] Experiments were conducted in quintuplicate. All testing was completed in simulated jejunal fluid (FaSSIF-V2; available from BioRelevant (London, UK) Cat: V2FA501 Lot: 02-1408-07, pH 6.5) using a 50 μL sample volume and a 4 hour incubation period. […]

[3] = molecular target: cyclophilin (Homo sapiens, UniProt P62937); conditions: voclosporin versus cyclosporine A; cited from earlier work
cyclophilin, sequence (P62937 whole entry): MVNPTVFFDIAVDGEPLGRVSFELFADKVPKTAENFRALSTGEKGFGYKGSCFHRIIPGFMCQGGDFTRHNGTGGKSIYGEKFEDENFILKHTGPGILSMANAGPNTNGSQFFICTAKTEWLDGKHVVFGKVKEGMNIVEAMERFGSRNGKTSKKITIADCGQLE

[4] = test system: inflammatory bowel disease (IBD); conditions: numerous murine models; cited from earlier work
[5] = binding to lipid A, the common moiety of LPS; cited from earlier work

human IL-6, sequence (P05231 30-212): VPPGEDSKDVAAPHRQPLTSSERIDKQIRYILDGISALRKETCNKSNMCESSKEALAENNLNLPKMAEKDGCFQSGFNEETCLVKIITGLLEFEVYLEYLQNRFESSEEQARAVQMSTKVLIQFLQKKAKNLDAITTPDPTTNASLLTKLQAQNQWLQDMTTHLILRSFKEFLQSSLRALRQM

Molecule: siltuximab: a chimeric, human-murine, immunoglobulin (Ig) Gκ mAb that binds and neutralizes human IL-6
- binds and neutralizes human IL-6 [1]: high affinity and specificity

Molecule: C[C@@H]1[C@H](O)[C@@H](C)/C=C/C=C/C=C/C=C/C=C/C=C/C=C/[C@H](O[C@@H]2O[C@H](C)[C@@H](O)[C@H](N)[C@@H]2O)C[C@@H]2O[C@](O)(C[C@@H](O)C[C@@H](O)[C@H](O)CC[C@@H](O)C[C@@H](O)CC(=O)O[C@H]1C)C[C@H](O)[C@H]2C(=O)O [amphotericin B, Amphotericin B]
- background fungal growth (plate counts and optical density) [2]: reduced the background fungal growth

Molecule: C=C/C=C/C[C@@H](C)[C@@H](O)[C@H]1C(=O)N[C@@H](CC)C(=O)N(C)CC(=O)N(C)[C@@H](CC(C)C)C(=O)N[C@@H](C(C)C)C(=O)N(C)[C@@H](CC(C)C)C(=O)N[C@@H](C)C(=O)N[C@H](C)C(=O)N(C)[C@@H](CC(C)C)C(=O)N(C)[C@@H](CC(C)C)C(=O)N(C)[C@@H](C(C)C)C(=O)N1C [voclosporin]
- binding affinity for cyclophilin [3]: comparable

Molecule: L-glutamic acid polymer with L-alanine, L-lysine and L-tyrosine, acetate (salt) [Glatiramer acetate]
- effect on inflammation and pathological manifestations of IBD [4]: reduce inflammation and ameliorate the pathological manifestations

B1: Lipopolysaccharide Binding Protein (LBP): Lipopolysaccharide Binding Protein, binds with high affinity to lipid A, the common moiety of LPS (protein, UniProt P18428 26-481, looked up)
Lipopolysaccharide-binding …: ANPGLVARITDKGLQYAAQEGLLALQSELLRITLPDFTGDLRIPHVGRGRYEFHSLNIHSCELLHSALRPVPGQGLSLSISDSSIRVQGRWKVRKSFFKLQGSFDVSVKGISISVNLLLGSESSGRPTVTASSCSSDIADVEVDMSGDLGWLLNLFHNQIESKFQKVLESRICEMIQKSVSSDLQPYLQTLPVTTEIDSFADIDYSLVEAPRATAQMLEVMFKGEIFHRNHRSPVTLLAAVMSLPEEHNKMVYFAISDYVFNTASLVYHEEGYLNFSITDDMIPPDSNIRLTTKSFRPFVPRLARLYPNMNLELQGSVPSAPLLNFSPGNLSVDPYMEIDAFVLLPSSSKEPVFRLSVATNVSATLTFNTSKITGFLKPGKVKVELKESKVGLFNAELLEALLNYYILNTFYPKFNDKLAEGFPLPLLKRVQLYDLGLQIHKDFLFLGANVQYMRV
- Kd [5]: 1 nM
